Source: US8389541B2, “Inhibitors of protein tyrosine kinase activity” (MethylGene Inc., priority 2007, dated 2013)

Assays:
[1] = target: T1, c-Met (Homo sapiens, UniProt P08581); assay: Inhibition of c-Met phosphorylation in MKN45 cells (direct ELISA); assay type: cell-based; conditions: 3 h treatment, read-out: CMET ELISA IN MKN45 IC50
T1 construct: endogenous in cells; host or cells: MKN45 gastric carcinoma cells
Source text: The following assay is used to determine inhibition of c-Met phosphorylation.
The c-Met receptor is expressed in numerous cancer cell lines derived from tumors of epithelial origin. In MKN45 gastric carcinoma cells the c-Met gene is amplified, resulting in several-fold overexpression of the receptor and its constitutive activation. For this reason constitutively high levels of ERK1/2 are also detected in these cells, independently of HGF-added stimulation (Smolen G A, Sordella R, Muir B, Mohapatra G, Barmettler A, Archibald H, et al. Amplification of MET may identify a subset of cancers with extreme sensitivity to the selective tyrosine kinase inhibitor PHA-665752. Proc Natl Acad Sci USA 2006). We have developed a sensitive method to follow c-Met phosphorylation in these cells. In previous studies with earlier generation c-Met inhibitors, we established that the IC50s for the inhibition of c-Met phosphorylation were identical using this novel ELISA approach and standard western blot procedure, with antibodies directed against the activating autocatalysis tyrosine residues of c-MET (Tyr Y1230-34-35).
Cell treatments: MKN45 cells are seeded into wells of 96-well plates at a density of 3×10^4 cells/well in RPMI medium supplemented with 10% FBS. HA-TPR-RON expressing 293T (clone 18) cells are seeded into wells of 96-well plates at a density of 3×10^4 cells/well in DMEM medium supplemented with 10% FBS. Cells are grown for 48 h prior to treatments with compounds of interest. Inhibitors are added to the medium in triplicate wells at the indicated doses. After 3 h of treatment, media is aspirated and cells are lysed by one freeze-thaw cycle in 50 μL/well hypotonic lysis buffer (25 mM HEPES pH 7.5, 10 mM NaCl with 1 mM 4-(2-aminoethyl)benzenesulfonyl fluoride hydrochloride, 200 μM sodium orthovanadate, 1 mM sodium fluoride, 10 μg/mL of leupeptin, 10 μg/mL of aprotinin/mL, 1 μg/mL of pepstatin and 50 μg/mL Na-p-tosyl-L-lysine chloromethyl ketone hydrochloride.
Detection of phosphorylated c-Met by direct ELISA: Lysate samples (5 μL) from wells of treatment plates are transferred to 80 μL of binding buffer (25 mM HEPES pH 7.5, 200 mM NaCl) in wells of high binding white polysterene 96-well plates (Corning). After an overnight protein binding incubation at 4° C., lysates are aspirated and wells are blocked for 1 h at 37° C. in TBST supplemented with 5% BSA. Plates are incubated with the primary antibodies anti-phospho-Tyrosine (Millipore, 4G10) diluted 1/15000 in TBST supplemented with 5% BSA for 1 h at room temperature. Plates are washed 3 times on a plate washer (SkanWasher, Molecular Devises), and incubated with the reporter antibody […] (Sigma) diluted 1/15000 in TBST supplemented with 5% BSA, for 1 h at room temperature. Plates are washed 3 times with TBST using on a plate washer and subsequently incubated with chemiluminescent substrate solution (ECL, Roche). Luminescence signal is captured on a Polar Star Optima apparatus (BMG LabTech).
Average values of the triplicate samples are used to prepare IC50 curves using a 4-parameter fit model. These curves are calculated using, for example, GraFit 5.0 software. For assay standardization purpose, an internal control is included on each experimental test plate.

[2] = system: DU145 cells; assay: Scatter assay in DU145 cells (HGF-stimulated); assay type: cell-based; conditions: Homo sapiens, DU-145, last dose that created an inhibitory effect on scattering, 24 h, read-out: DU145 SCATT. INHIB IC50
Protocol: Scatter assays in DU145. The scatter assay is performed as described previously (Miura H, Nishimura K, Tsujimura A, Matsumiya K, Matsumoto K, Nakamura T, et al. Effects of hepatocyte growth factor on E-cadherin-mediated cell-cell adhesion in DU145 prostate cancer cells. Urology 2001; 58(6):1064-9) for DU145 prostate carcinoma cells with the indicated modifications. In brief, DU145 cells (ATCC) are seeded in 24-well plates at a density of 7×10^3 cells/well in MEM medium complemented with 10% FBS and cultured for 48 h, to allow the formation of small compact colonies of cells. Inhibitors are subsequently added at a range of doses (0.00032-10 uM) for 3 h. Cells are then stimulated to migrate by the addition of HGF (in the form of conditioned medium from 293T cells over-expressing the human HGF gene) and the culture is continued for another 24 h. The IC50 values is defined as the last dose that created an inhibitory effect on scattering. For the purpose of standardization a control is carried on every test plates for the DU145 scattering assays.

[3] = target: recombinant human c-Met/HGF receptor (Homo sapiens, UniProt P08581); assay: In vitro receptor tyrosine kinase assay (DELFIA), c-Met/HGF receptor
recombinant human c-Met/HGF receptor, sequence (P08581 1078-1337): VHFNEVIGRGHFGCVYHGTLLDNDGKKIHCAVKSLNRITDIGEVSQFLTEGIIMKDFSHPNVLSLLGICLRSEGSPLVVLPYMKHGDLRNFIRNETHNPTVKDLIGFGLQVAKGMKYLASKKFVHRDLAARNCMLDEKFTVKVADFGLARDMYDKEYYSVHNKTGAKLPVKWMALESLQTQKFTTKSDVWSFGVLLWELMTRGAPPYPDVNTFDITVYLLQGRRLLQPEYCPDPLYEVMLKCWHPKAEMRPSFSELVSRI

[4] = target: T2, VEGF receptor KDR (Homo sapiens, UniProt P35968); assay: In vitro receptor tyrosine kinase assay (DELFIA), VEGF receptor KDR; assay type: biochemical; conditions: GST-VEGFR2 806-1356, 0.6 uM ATP; read-out: VEGFR IC50
T2 construct: made in house; host or cells: Sf9 cells (Spodoptera frugiperda), baculovirus
T2 sequence (P35968 806-1356): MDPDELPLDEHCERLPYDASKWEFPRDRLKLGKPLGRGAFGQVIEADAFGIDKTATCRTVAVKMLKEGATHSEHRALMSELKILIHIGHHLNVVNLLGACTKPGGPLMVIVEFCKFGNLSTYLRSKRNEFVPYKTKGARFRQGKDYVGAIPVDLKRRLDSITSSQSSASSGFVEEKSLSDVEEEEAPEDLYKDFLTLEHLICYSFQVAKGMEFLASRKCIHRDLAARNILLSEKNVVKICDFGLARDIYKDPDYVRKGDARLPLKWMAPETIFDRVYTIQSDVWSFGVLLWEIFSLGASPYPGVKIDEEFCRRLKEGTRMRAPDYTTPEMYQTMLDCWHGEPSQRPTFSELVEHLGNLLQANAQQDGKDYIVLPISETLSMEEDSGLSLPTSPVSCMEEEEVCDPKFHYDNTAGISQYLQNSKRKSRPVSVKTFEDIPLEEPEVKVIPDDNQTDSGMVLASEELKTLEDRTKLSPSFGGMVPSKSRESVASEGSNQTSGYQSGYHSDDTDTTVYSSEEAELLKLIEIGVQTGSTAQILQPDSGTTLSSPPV
Source text: In the case of VEGF receptor KDR a 1.6-kb cDNA corresponding to the catalytic domain of VEGFR2 or KDR (Genbank accession number AF035121 amino acid 806 to 1356) is cloned into the Pst I site of the pDEST20 Gateway vector (Invitrogen) for the production of a GST-tagged version of that enzyme.
The GST-VEGFR2806-1356 protein is expressed in Sf9 cells (Spodoptera frugiperda) upon infection with recombinant baculovirus construct.
The supernatant is loaded onto a GST-agarose column (Sigma) equilibrated with PBS pH 7.3. Following a four column volume (CV) wash with PBS pH 7.3+1% Triton X-100 and 4 CV wash with buffer B (50 mM Tris pH 8.0, 20% glycerol and 100 mM NaCl), bound proteins are step eluted with 5 CV of buffer B supplemented with 5 mM DTT and 15 mM glutathion. […] Final GST-VEGFR2806-1356 protein preparations concentrations are about 0.7 mg/ml with purity approximating 70%.

[5] = system: A549 cells; assay: Wound healing assay in A549 cells (HGF-stimulated); assay type: cell-based; conditions: Homo sapiens, last dose that inhibited gap closing by more than 25%, 24 h, read-out: A549 WOUND_HEALING IC50
Protocol: Wound healing assay in A549 cells. A549 cells (ATCC) are seeded in DMEM low glucose medium complemented with 10% FBS into 24-well plates at a density of 7.5×10^4 cells/well and grown to confluence (48 h). Inhibitors were added to the medium at a range of doses (0.00032-10 uM) for 3 h at which point a gap is introduced by scraping cells with a P1000 pipette tip. Cells are then stimulated to migrate by the addition of HGF (in the form of conditioned medium from 293T cells over-expressing the human HGF gene) and the culture is continued for 24 h. […] For the purpose of standardization, a control is carried on every assay plates.

T1 sequence (P08581 25-1390): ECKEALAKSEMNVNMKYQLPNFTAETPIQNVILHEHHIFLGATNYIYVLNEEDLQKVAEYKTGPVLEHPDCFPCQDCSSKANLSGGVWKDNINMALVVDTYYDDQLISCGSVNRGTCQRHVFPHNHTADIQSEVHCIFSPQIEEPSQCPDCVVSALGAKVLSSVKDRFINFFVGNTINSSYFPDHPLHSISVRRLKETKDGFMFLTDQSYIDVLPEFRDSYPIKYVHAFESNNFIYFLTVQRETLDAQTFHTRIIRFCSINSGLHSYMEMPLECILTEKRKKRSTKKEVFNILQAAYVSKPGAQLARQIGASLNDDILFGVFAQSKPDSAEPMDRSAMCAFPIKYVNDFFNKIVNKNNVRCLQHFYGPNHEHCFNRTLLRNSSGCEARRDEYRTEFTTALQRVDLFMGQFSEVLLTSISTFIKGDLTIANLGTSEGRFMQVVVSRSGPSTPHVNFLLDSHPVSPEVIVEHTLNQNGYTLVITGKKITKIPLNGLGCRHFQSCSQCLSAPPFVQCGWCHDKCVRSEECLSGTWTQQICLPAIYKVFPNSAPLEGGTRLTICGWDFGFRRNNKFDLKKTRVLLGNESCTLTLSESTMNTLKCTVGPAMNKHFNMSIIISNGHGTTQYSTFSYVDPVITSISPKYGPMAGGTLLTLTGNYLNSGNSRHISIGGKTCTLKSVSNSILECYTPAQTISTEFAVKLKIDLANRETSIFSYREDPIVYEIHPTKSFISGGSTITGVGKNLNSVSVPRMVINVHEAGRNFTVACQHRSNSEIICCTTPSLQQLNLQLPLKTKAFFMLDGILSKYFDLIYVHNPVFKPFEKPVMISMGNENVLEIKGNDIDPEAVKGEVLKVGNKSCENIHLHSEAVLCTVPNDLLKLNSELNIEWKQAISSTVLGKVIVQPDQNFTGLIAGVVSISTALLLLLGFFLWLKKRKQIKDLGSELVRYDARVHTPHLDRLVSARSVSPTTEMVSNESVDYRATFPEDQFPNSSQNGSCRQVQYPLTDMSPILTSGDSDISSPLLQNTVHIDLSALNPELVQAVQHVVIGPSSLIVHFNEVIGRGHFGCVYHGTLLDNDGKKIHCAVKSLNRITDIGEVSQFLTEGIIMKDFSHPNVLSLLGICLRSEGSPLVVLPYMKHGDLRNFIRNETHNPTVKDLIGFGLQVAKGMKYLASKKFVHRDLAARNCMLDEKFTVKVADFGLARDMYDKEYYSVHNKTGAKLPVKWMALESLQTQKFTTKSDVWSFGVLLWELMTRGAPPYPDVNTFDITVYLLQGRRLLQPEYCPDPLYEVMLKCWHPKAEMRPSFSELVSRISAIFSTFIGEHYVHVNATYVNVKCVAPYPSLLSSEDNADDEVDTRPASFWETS

Row | Structure (SMILES) | IC50 [1] [µM] | IC50 [2] [µM] | IC50 [3] [µM] | IC50 [4] [µM] | IC50 [5] [µM]
1 | O=C(Nc1ccccc1)C1(C(=O)Nc2ccc(Oc3ccnc4cc(-c5ccc(CNCC(F)(F)F)cc5)sc34)c(F)c2)CC1 | < 0.25 | < 0.25 | < 0.25 | < 0.25 | < 0.25
2 | COCCNCc1cnc(-c2cc3nccc(Oc4ccc(NC(=S)NC(=O)Cc5ccccc5)cc4F)c3s2)n1C [drawing 342] | < 0.25 | < 0.25 | < 0.25 | < 0.25 | < 0.25
3 | COCCNCc1ccc(-c2cc3nccc(Oc4ccc(NC(=O)CC(=O)N(C)c5ccccc5)cc4F)c3s2)nc1 [drawing 346] | < 0.25 | 0.25 to 0.5 | < 0.25 | < 0.25 | 0.25 to 0.5
4 | COCCNCc1ccc(-c2cc3nccc(Oc4ccc(NC(=O)C5(C(=O)Nc6ccccc6)CC5)cc4F)c3s2)o1 [drawing 326] | < 0.25 | 0.25 to 0.5 | < 0.25 | < 0.25 | 0.25 to 0.5
5 | COCCNCc1ccc(-c2cc3nccc(Oc4ccc(NC(=O)CC(=O)Nc5ccc(F)cc5)cc4F)c3s2)nc1 | < 0.25 | 0.25 to 0.5 | < 0.25 | < 0.25 | < 0.25
6 | CN(C)CCOC(=O)N1CC=C(c2cc3nccc(Oc4ccc(NC(=S)NC(=O)Cc5ccccc5)cc4F)c3s2)CC1 | < 0.25 | < 0.25 | < 0.25 | < 0.25 | < 0.25
7 | COCCNCc1ccc(-c2cc3nccc(Oc4ccc(NC(=S)NC(=O)Cc5ccccc5)cc4F)c3s2)s1 | < 0.25 | 0.25 to 0.5 | < 0.25 | < 0.25 | > 1
8 | COCCNCc1ccc(-c2cc3nccc(Oc4ccc(NC(=S)NC(=O)Cc5ccccc5)cc4F)c3s2)nc1 | < 0.25 | < 0.25 | < 0.25 | < 0.25 | < 0.25
9 | COCCNCc1ccc(-c2cc3nccc(Oc4ccc(NC(=O)CC(=O)Nc5ccccc5)cc4F)c3s2)c(F)c1 | < 0.25 | 0.25 to 0.5 | < 0.25 | < 0.25 | > 1
10 | COCCNCCn1cnc(-c2cc3nccc(Oc4ccc(NC(=S)NC(=O)Cc5ccc(F)cc5)cc4F)c3s2)c1 [drawing 318] | < 0.25 | 0.25 to 0.5 | < 0.25 | < 0.25 | 0.25 to 0.5
11 | COCCNCc1cccc(-c2cc3nccc(Oc4ccc(NC(=O)C5(C(=O)Nc6ccccc6)CC5)cc4F)c3s2)c1 | < 0.25 | < 0.25 | < 0.25 | < 0.25 | < 0.25
12 | COCCNC(=O)c1ccc(-c2cc3nccc(Oc4ccc(NC(=S)NC(=O)Cc5ccccc5)cc4F)c3s2)cc1 | < 0.25 | 0.25 to 0.5 | < 0.25 | < 0.25 | > 1
13 | COCCNCc1ccc(-c2cc3nccc(Oc4ccc(NC(=O)CC(=O)Nc5ccccc5)cc4F)c3s2)cc1 | 0.25 to 0.5 | 0.25 to 0.5 | < 0.25 | < 0.25 | 0.25 to 0.5
14 | COCCNCc1cnc(-c2cc3nccc(Oc4ccc(NC(=O)C5(C(=O)Nc6ccccc6)CC5)cc4F)c3s2)n1C | < 0.25 | < 0.25 | < 0.25 | < 0.25 | < 0.25
15 | COCCNCc1cccc(-c2cc3nccc(Oc4ccc(NC(=O)NC(=O)Cc5ccc(F)cc5)cc4F)c3s2)c1 | 0.25 to 0.5 | 0.25 to 0.5 | < 0.25 | 0.25 to 0.5 | > 1
16 | CN(C(=O)CC(=O)Nc1ccc(Oc2ccnc3cc(-c4ccc(CNCCS(C)(=O)=O)cc4)sc23)c(F)c1)c1ccccc1 [drawing 347] | < 0.25 | 0.25 to 0.5 | < 0.25 | < 0.25 | 0.25 to 0.5
17 | COCCNCc1ccc(-c2cc3nccc(Oc4ccc(NC(=S)NC(=O)Cc5ccccc5)cc4F)c3s2)o1 | < 0.25 | > 1 | < 0.25 | < 0.25 | 0.25 to 0.5
18 | COC[C@H](C)NCc1cccc(-c2cc3nccc(Oc4ccc(NC(=S)NC(=O)Cc5ccccc5)cc4F)c3s2)c1 | < 0.25 | 0.25 to 0.5 | < 0.25 | < 0.25 | 0.25 to 0.5
19 | COCCNCc1cnc(-c2cc3nccc(Oc4ccc(NC(=O)CC(=O)Nc5ccccc5)cc4F)c3s2)n1C [drawing 345] | < 0.25 | 0.25 to 0.5 | < 0.25 | < 0.25 | 0.25 to 0.5
20 | COCCNCc1ccc(-c2cc3nccc(Oc4ccc(NC(=S)NC(=O)Cc5ccccc5OC)cc4F)c3s2)cc1 | < 0.25 | 0.25 to 0.5 | < 0.25 | < 0.25 | > 1
21 | COCCNCCc1ccc(-c2cc3nccc(Oc4ccc(NC(=O)CC(=O)Nc5ccccc5)cc4F)c3s2)cc1 | 0.25 to 0.5 | 0.25 to 0.5 | < 0.25 | < 0.25 | 0.25 to 0.5
22 | COCCNCCc1cccc(-c2cc3nccc(Oc4ccc(NC(=S)NC(=O)Cc5ccc(F)cc5)cc4F)c3s2)c1 | < 0.25 | < 0.25 | < 0.25 | < 0.25 | 0.25 to 0.5
23 | CS(=O)(=O)CCNCc1ccc(-c2cc3nccc(Oc4ccc(NC(=S)NC(=O)Cc5ccccc5)cc4F)c3s2)cc1 | < 0.25 | 0.25 to 0.5 | < 0.25 | < 0.25 | 0.25 to 0.5
